Data as given in the supplement of paper PMC11451515.

Tested on: SEM cells
Experiment: cell viability relative to DMSO control; higher = less cytotoxic
Settings: 48 h
Method in brief: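 Viability is expressed as a percentage of DMSO wells within each plate, and cell-free wells serve as background. Seeding densities in the 1536-well plates (5 μl) were 500 cells/well for NOMO1 or SEM leukemia cells and 1000 cells/well for P12-Ichikawa. Each line was adapted for at least four passages in each medium. Library compounds in DMSO were pin-dosed at 47 μM to 0.79 nM (11 points, threefold), and CellTiter-Glo One luminescence was read after 48 h at 37°C.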

[1] = HPLM + 10% dialyzed FBS, 0.000781 µM
[2] = HPLM + 10% dialyzed FBS, 0.00234 µM
[3] = HPLM + 10% dialyzed FBS, 0.00702 µM
[4] = HPLM + 10% dialyzed FBS, 0.0211 µM
[5] = HPLM + 10% dialyzed FBS, 0.0632 µM
[6] = HPLM + 10% dialyzed FBS, 0.19 µM
[7] = HPLM + 10% dialyzed FBS, 0.569 µM
[8] = HPLM + 10% dialyzed FBS, 1.71 µM
[9] = HPLM + 10% dialyzed FBS, 5.12 µM
[10] = HPLM + 10% dialyzed FBS, 15.4 µM
[11] = HPLM + 10% dialyzed FBS, 46.1 µM
[12] = RPMI 5 mM glucose + 10% FBS, 0.000781 µM
[13] = RPMI 5 mM glucose + 10% FBS, 0.00234 µM
[14] = RPMI 5 mM glucose + 10% FBS, 0.00702 µM
[15] = RPMI 5 mM glucose + 10% FBS, 0.0211 µM
[16] = RPMI 5 mM glucose + 10% FBS, 0.0632 µM
[17] = RPMI 5 mM glucose + 10% FBS, 0.19 µM
[18] = RPMI 5 mM glucose + 10% FBS, 0.569 µM
[19] = RPMI 5 mM glucose + 10% FBS, 1.71 µM
[20] = RPMI 5 mM glucose + 10% FBS, 5.12 µM
[21] = RPMI 5 mM glucose + 10% FBS, 15.4 µM
[22] = RPMI 5 mM glucose + 10% FBS, 46.1 µM
[23] = RPMI 5 mM glucose + 10% dialyzed FBS, 0.000781 µM
[24] = RPMI 5 mM glucose + 10% dialyzed FBS, 0.00234 µM
[25] = RPMI 5 mM glucose + 10% dialyzed FBS, 0.00702 µM
[26] = RPMI 5 mM glucose + 10% dialyzed FBS, 0.0211 µM
[27] = RPMI 5 mM glucose + 10% dialyzed FBS, 0.0632 µM
[28] = RPMI 5 mM glucose + 10% dialyzed FBS, 0.19 µM
[29] = RPMI 5 mM glucose + 10% dialyzed FBS, 0.569 µM
[30] = RPMI 5 mM glucose + 10% dialyzed FBS, 1.71 µM
[31] = RPMI 5 mM glucose + 10% dialyzed FBS, 5.12 µM
[32] = RPMI 5 mM glucose + 10% dialyzed FBS, 15.4 µM
[33] = RPMI 5 mM glucose + 10% dialyzed FBS, 46.1 µM

| Structure (SMILES) | cell viability [1] | cell viability [2] | cell viability [3] | cell viability [4] | cell viability [5] | cell viability [6] | cell viability [7] | cell viability [8] | cell viability [9] | cell viability [10] | cell viability [11] | cell viability [12] | cell viability [13] | cell viability [14] | cell viability [15] | cell viability [16] | cell viability [17] | cell viability [18] | cell viability [19] | cell viability [20] | cell viability [21] | cell viability [22] | cell viability [23] | cell viability [24] | cell viability [25] | cell viability [26] | cell viability [27] | cell viability [28] | cell viability [29] | cell viability [30] | cell viability [31] | cell viability [32] | cell viability [33] |
| --- | --- | --- | --- | --- | --- | --- | --- | --- | --- | --- | --- | --- | --- | --- | --- | --- | --- | --- | --- | --- | --- | --- | --- | --- | --- | --- | --- | --- | --- | --- | --- | --- | --- |
| C[C@]12CC[C@H]3[C@@H](CCC/4=C/C(=O)CC[C@]34C)[C@@H]1CC[C@@H]2OC(=O)CCC5CCCC5 | 90% | 92.3% | 99.1% | 102% | 104% | 99.9% | 95.6% | 104% | 101% | 97.1% | 111% | 99.7% | 86.2% | 109% | 105% | 122% | 115% | 131% | 101% | 124% | 98.8% | 94.6% | 99.5% | 105% | 101% | 113% | 104% | 104% | 108% | 121% | 124% | 90.6% | 109% |
| CCOc1ccc(Cc2cc([C@@H]3O[C@H](CO)[C@@H](O)[C@H](O)[C@H]3O)ccc2Cl)cc1 | 113% | 108% | 120% | 107% | 126% | 125% | 117% | 121% | 115% | 128% | 113% | 102% | 110% | 110% | 89.5% | 106% | 124% | 112% | 121% | 121% | 115% | 118% | 116% | 104% | 128% | 85.6% | 117% | 124% | 129% | 122% | 119% | 117% | 105% |
| CON(C)C(=O)N1/N=C(S[C@@]1(CCCN)C2=CC=CC=C2)/C3=CC(=CC=C3F)F | 96.3% | 99.9% | 42.5% | 21.7% | 23.9% | 24.4% | 22% | 21.3% | 10.6% | 19.7% | 15.3% | – | – | – | – | – | – | – | – | – | – | – | 100% | 114% | 111% | 30.4% | 24.4% | 22.7% | 24.1% | 24.8% | 13% | 22.2% | 16.4% |
| Cc1c(C)c2c(c(C)c1O)CCC(C)(COc1ccc(CC3SC(=O)NC3=O)cc1)O2 (centres undefined) | 119% | 113% | 127% | 117% | 124% | 117% | 128% | 132% | 141% | 112% | 93.1% | – | – | – | – | – | – | – | – | – | – | – | 104% | 101% | 127% | 106% | 126% | 121% | 136% | 134% | 154% | 95.4% | 84.9% |
| C=CCc1ccc(O)c(-c2ccc(O)c(CC=C)c2)c1 | 103% | 107% | 109% | 95.3% | 120% | 112% | 105% | 56.1% | 40.6% | 40.4% | 37.6% | 78.6% | 88.8% | 93.2% | 85.1% | 93.6% | 108% | 79.1% | 20% | 14.7% | 21.4% | 17.6% | 98.8% | 101% | 109% | 89.6% | 109% | 107% | 94% | 27.2% | 20.6% | 21.4% | 24.6% |
| N=C1N[C@H]2[C@H](CS[C@H]2CCCCC(=O)O)N1 | 80.4% | 109% | 91.8% | 97.2% | 111% | 108% | 25.3% | 112% | 117% | 112% | 109% | 87.6% | 115% | 108% | 106% | 107% | 107% | 15.4% | 115% | 110% | 115% | 121% | 108% | 105% | 111% | 118% | 117% | 101% | 18.4% | 121% | 122% | 124% | 128% |
| O=C1NC(=O)/C(=C/c2ccc(-c3ccc(F)cc3O)o2)S1 | 127% | 118% | 110% | 122% | 123% | 111% | 111% | 102% | 124% | 94.1% | 87.1% | – | – | – | – | – | – | – | – | – | – | – | 114% | 129% | 120% | 122% | 112% | 121% | 111% | 84.6% | 87.3% | 98.6% | 74.8% |
| C[C@@]1(C(=O)Nc2ccc(F)nc2)CCCN1c1nc(Nc2cc(C3CC3)[nH]n2)c2cccn2n1 | 90.8% | 98.6% | 106% | 97.2% | 101% | 98.8% | 81.9% | 103% | 30.6% | 21.4% | 9.04% | 56.6% | 68.8% | 64.6% | 70.6% | 72.6% | 77.2% | 66.1% | 60.1% | 10.9% | 8.82% | 2.55% | 95.4% | 89.5% | 102% | 107% | 112% | 92.3% | 104% | 96.5% | 18.8% | 16.4% | 6.22% |
| COc1cc(C(=O)NS(=O)(=O)c2ccccc2C)ccc1Cc1cn(C)c2ccc(NC(=O)OC3CCCC3)cc12 | 59.7% | 55.9% | 66.9% | 73.4% | 87.5% | 90% | 80.7% | 70% | 64.4% | 62.6% | 5.13% | 85.4% | 83.3% | 73.3% | 63.4% | 92.4% | 85.2% | 39.6% | 70.5% | 78.9% | 71.3% | 4.48% | 69.7% | 54.8% | 64.2% | 76.6% | 77.9% | 83.2% | 62.4% | 76.5% | 63% | 72.5% | 5.4% |
